What was measured:
Details in all cases: 72 h
HepG2 [1] = assay: drug sensitivity score (DSS) for viability; higher = more toxic; extreme values may be limits of the assay
Caco-2 [2] = assay: as above
Vero E6 [3] = assay: as above
U2OS [4] = assay: as above
HepG2 [5] = assay: relative viability EC50 (midpoint between 100% and the lowest measured viability); higher = less toxic
Caco-2 [6] = assay: as above
Vero E6 [7] = assay: as above
U2OS [8] = assay: as above
HepG2 [9] = assay: cell viability relative to DMSO; higher = less toxic
Caco-2 [10] = assay: as above
Vero E6 [11] = assay: as above
U2OS [12] = assay: as above
Calu-3 [13] = assay: drug sensitivity score (DSS) for viability; higher = more toxic; extreme values may be limits of the assay
Calu-3 [14] = assay: cell viability relative to DMSO; higher = less toxic
Calu-3 [15] = assay: relative viability EC50 (midpoint between 100% and the lowest measured viability); higher = less toxic

| SMILES | drug sensitivity score (HepG2 [1]) | drug sensitivity score (Caco-2 [2]) | drug sensitivity score (Vero E6 [3]) | drug sensitivity score (U2OS [4]) | relative viability EC50 (HepG2 [5]) | relative viability EC50 (Caco-2 [6]) | relative viability EC50 (Vero E6 [7]) | relative viability EC50 (U2OS [8]) | cell viability (HepG2 [9]; 1 nM) | cell viability (HepG2 [9]; 10 nM) | cell viability (HepG2 [9]; 100 nM) | cell viability (HepG2 [9]; 1000 nM) | cell viability (HepG2 [9]; 10000 nM) | cell viability (Caco-2 [10]; 1 nM) | cell viability (Caco-2 [10]; 10 nM) | cell viability (Caco-2 [10]; 100 nM) | cell viability (Caco-2 [10]; 1000 nM) | cell viability (Caco-2 [10]; 10000 nM) | cell viability (Vero E6 [11]; 1 nM) | cell viability (Vero E6 [11]; 10 nM) | cell viability (Vero E6 [11]; 100 nM) | cell viability (Vero E6 [11]; 1000 nM) | cell viability (Vero E6 [11]; 10000 nM) | cell viability (U2OS [12]; 1 nM) | cell viability (U2OS [12]; 10 nM) | cell viability (U2OS [12]; 100 nM) | cell viability (U2OS [12]; 1000 nM) | cell viability (U2OS [12]; 10000 nM) | drug sensitivity score (Calu-3 [13]) | cell viability (Calu-3 [14]; 1 nM) | cell viability (Calu-3 [14]; 10 nM) | cell viability (Calu-3 [14]; 100 nM) | cell viability (Calu-3 [14]; 1000 nM) | cell viability (Calu-3 [14]; 10000 nM) | relative viability EC50 (Calu-3 [15]) |
| --- | --- | --- | --- | --- | --- | --- | --- | --- | --- | --- | --- | --- | --- | --- | --- | --- | --- | --- | --- | --- | --- | --- | --- | --- | --- | --- | --- | --- | --- | --- | --- | --- | --- | --- | --- |
| C=C(C)[C@@H]1CC=C(CO)CC1 [perillyl-alcohol] | 0 | 0 | 0 | 0 | > 10000 nM | > 10 µM | > 10 µM | > 10 µM | 101% | 93.2% | 108% | 94.5% | 92.9% | 99% | 99.6% | 102% | 102% | 98.6% | 98% | 102% | 98% | 95.5% | 96% | 105% | 98.2% | 98.8% | 95.6% | 98.5% |  |  |  |  |  |  |  |
| Oc1ccc(CC2NCCc3cc(O)c(O)cc32)cc1 (stereo not given) [higenamine] | 6.3 | 3.5 | 2.7 | 3.7 | 1560 nM |  | 3.22 µM | 2.95 µM | 105% | 97.1% | 99.3% | 83.3% | 32.6% | 97.6% | 102% | 94.9% | 86.2% | 59.4% | 104% | 99.2% | 102% | 100% | 48.6% | 98.1% | 103% | 97.5% | 98.1% | 36.6% |  |  |  |  |  |  |  |
| COC(=O)N[C@@H](C)CNc1nccc(-c2cn(C(C)C)nc2-c2cc(Cl)cc(NS(C)(=O)=O)c2F)n1 [Encorafenib (LGX818)] | 14.2 | 2.4 | 0.7 | 1.1 | 370 nM |  |  | > 10 µM | 96.2% | 91.7% | 79.7% | 38.4% | 11.1% | 103% | 89.5% | 97% | 88.4% | 69.5% | 106% | 106% | 109% | 116% | 71.6% | 101% | 104% | 106% | 94.2% | 82% |  |  |  |  |  |  |  |
| COC[C@H]1OC(=O)c2coc3c2[C@@]1(C)C1=C(C3=O)[C@@H]2CCC(=O)[C@@]2(C)C[C@H]1OC(C)=O [wortmannin] | 0.3 | 9.1 | 1.7 | 2.8 | > 10000 nM | 0.409 µM | > 10 µM |  | 98.4% | 97.4% | 98.2% | 98.2% | 86.7% | 102% | 99.3% | 88.2% | 58.3% | 40.8% | 106% | 103% | 97.3% | 88.9% | 76.8% | 95.1% | 99.3% | 94.1% | 91.1% | 65.1% | 7.9 | 93.8% | 90.6% | 82.7% | 69.5% | 51.4% |  |
| COc1cc(NC(=O)Nc2cccc(CNC(=O)O[C@H]3CCOC3)c2)ccc1-c1cnco1 [merimepodib] | 4.3 |  | 0 | 3.7 |  |  |  |  |  |  |  |  |  |  |  |  |  |  |  |  |  |  |  |  |  |  |  |  | 3.6 |  |  |  |  |  |  |
| O=C1[O][SbH]23[O]C(=O)C([O]2)C2[O][SbH]4([O]C(=O)C([O]4)C1[O]3)[O]C2=O [antimonyl] | 3.4 | 2.8 | 0 | 0.5 | 2480 nM |  | > 10 µM | > 10 µM | 96.3% | 105% | 101% | 95.7% | 48% | 106% | 94.7% | 99.2% | 84.7% | 71.5% | 98.7% | 103% | 106% | 107% | 102% | 95.6% | 97.1% | 97.6% | 96.5% | 84.8% |  |  |  |  |  |  |  |
| NP(N)(=O)NC(=O)c1ccc(F)cc1 [flurofamide] | 0 | 0 | 0 | 0 | > 10000 nM | > 10 µM | > 10 µM | > 10 µM | 101% | 98.6% | 90.1% | 95% | 103% | 95.9% | 96.4% | 90.9% | 94.7% | 91% | 103% | 102% | 103% | 97.6% | 102% | 100% | 102% | 97.3% | 99.4% | 96% |  |  |  |  |  |  |  |
| O=C(NOCC1CC1)c1ccc(F)c(F)c1Nc1ccc(I)cc1Cl | 14.6 | 5.1 | 7.9 | 0.4 | 277 nM |  |  | > 10 µM | 96.9% | 89.3% | 84.2% | 31.6% | 19.4% | 97.4% | 94.6% | 89.3% | 75.3% | 65.6% | 94.5% | 98.5% | 84.4% | 65.9% | 50.6% | 101% | 97.1% | 94.9% | 91.4% | 85.3% |  |  |  |  |  |  |  |
| Cn1c(=O)cnn(CCCCN2CCN(c3ncccn3)CC2)c1=O | 0 |  |  | 0 | > 10000 nM |  |  | > 10 µM | 111% | 114% | 95.2% | 116% | 106% |  |  |  |  |  |  |  |  |  |  | 103% | 97.1% | 103% | 97.8% | 103% | 0 | 111% | 91.3% | 102% | 120% | 103% | > 10 µM |

Reference: the supplement of paper PMC13380429
